# Source: patent US6737383B1, “Herbicidal oxadiazolidines” (priority 1999, dated 2004)
# Tested on: Pioneer hybrid P33G26 corn
# Assay: Test H corn injury, herbicide and safener mixtures applied to soil
# Details: in vivo
# Experimental: Mixtures of the herbicide and safeners were applied to pots of a soil mixture previously sown with corn. Pioneer hybrid P33G26 corn was sown in pots containing a sterile mix of 60% sassafras soil and 40% Metro Mix 360® growing medium (pH 6.7, O.M. 2%). Test compounds were dissolved in AGWT (a mixture of 0.25% Tween 20 surfactant, 5% water, 5% glycerin and 89.75% acetone) and sprayed on the soil as pots passed under a stationary 8002E nozzle. Treatments were applied at a 33 gal/acre rate of the AGWT carrier. After treatment, the test pots were placed in the greenhouse and watered. There were two replications for each treatment. Each pot contained eight corn seeds. The pots within each replication were placed in random positions on greenhouse benches. Test plants were fertilized as they were watered with approximately 200 ppm of N (as water soluble 20-20-20 fertilizer) which was metered into the water lines with a fertilizer injector. Daytime temperatures was 23-30° C. and night time temperature was 18-25° C. The test plants were supplemented with artificial lighting. The lights were activated whenever the natural light intensity dropped below the programmed threshold. Day length was maintained for approximately 14 hours.
# The test was evaluated approximately 12 days after treatment. […]
compound,measurement,value
CC1COc2ccccc2N1C(=O)C(Cl)Cl (stereo not shown) [benoxacor],Safening of Compound 113 on corn,functioned very effectively as safeners
